Assay results as given in US8030298B2, “17β-HSD1 and STS inhibitors” (Abbott Products GmbH, priority 2005, dated 2011).

Molecular target: T1, recombinant human 17β-hydroxysteroid dehydrogenase type 1 (Homo sapiens, UniProt P14061)
T1 construct: made in house; host or cells: Sf9 insect cells (baculovirus, Bac to Bac Expression System)
T1 sequence (P14061 1-328): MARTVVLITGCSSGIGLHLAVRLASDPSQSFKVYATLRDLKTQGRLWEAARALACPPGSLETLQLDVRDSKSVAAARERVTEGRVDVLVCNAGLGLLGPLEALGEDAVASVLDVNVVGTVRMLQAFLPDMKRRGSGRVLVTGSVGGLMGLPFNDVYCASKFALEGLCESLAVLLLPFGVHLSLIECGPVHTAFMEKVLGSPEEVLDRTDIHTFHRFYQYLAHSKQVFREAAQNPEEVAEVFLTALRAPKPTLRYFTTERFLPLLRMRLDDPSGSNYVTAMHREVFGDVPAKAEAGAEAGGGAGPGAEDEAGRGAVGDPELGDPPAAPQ
Test: Inhibition of recombinant human 17β-hydroxysteroid dehydrogenase type 1 (3H-estrone to estradiol conversion, HPLC)
Format: biochemical
Conditions: read-out: Inhibition of rec. 17β-HSD1 (% inhibition); for inhibition at 0.1 µM: inhibitor concentration 100 nM; for inhibition at 1 µM: 0.5 h, inhibitor concentration 1 μm
Procedure: 17β-HSD1 purification: Recombinant baculovirus was generated by the “Bac to Bac Expression System” (Invitrogen). Recombinant bacmid was transfected to Sf9 insect cells using “Cellfectin Reagent” (Invitrogen). 60 h later cells were harvested; the microsomal fraction was isolated as described by Puranen et al. (1994). Aliquots were stored frozen until determination of enzymatic activity.
Assay—Inhibition of recombinant human 17β-hydroxysteroid dehydrogenase type 1: Recombinant protein (0.1 μg/ml) was incubated in 20 mM KH2PO4 pH 7.4 with 30 nM 3H-estrone and 1 mM NADPH for 30 min at RT, in the presence of potential inhibitors at concentrations of 1 μM or 0.1 μM. Inhibitor stock solutions were prepared in DMSO. Final concentration of DMSO was adjusted to 1% in all samples. The enzyme reaction was stopped by addition of 10% trichloroacetic acid (final concentration). Samples were centrifuged in a microtiter plate at 4000 rpm for 10 min. Supernatants were applied to reverse phase HPLC on a Waters Symmetry C18 column, equipped with a Waters Sentry Guard column. Isocratic HPLC runs were performed at RT at a flow rate of 1 ml/min of acetonitrile:water 48:52 as running solvent. Radioactivity was monitored in the eluate by a Packard Flow Scintillation Analyzer. Total radioactivity for estrone and estradiol were determined in each sample and percent conversion of estrone to estradiol was calculated according to the following formula:
Percent inhibition was calculated as follows: % inhibition=100−% conversion

Structure (SMILES) | inhibition at 0.1 µM [%] | inhibition at 1 µM [%]
C[C@]12CC[C@@H]3c4ccc(O)cc4CC[C@H]3[C@@H]1[C@H](CCC(=O)NCc1ccc(O)c(O)c1)CC2(F)F [Compound 127] | 21.1 | –
C[C@]12CC[C@@H]3c4ccc(OS(N)(=O)=O)cc4CC[C@H]3[C@@H]1[C@H](CCCC(=O)N1CCOCC1)CC2=O [Example 163, 3-Sulphamate-15β-(4-morpholin-4-yl-4-oxo-butyl)-estra-1,3,5(10)-trien-17-one] | 10 | 43
Cc1cccc2c(CCNC(=O)CC[C@@H]3CC(F)(F)[C@@]4(C)CC[C@@H]5c6ccc(O)cc6CC[C@H]5[C@H]34)c[nH]c12 [Compound 129] | 33.1 | –
CCOc1cc2c(cc1O)CC[C@H]1[C@@H]3[C@@H](CCCC(=O)Nc4ccc5cn[nH]c5c4)CC(=O)[C@@]3(C)CC[C@H]21 [Compound 59] | 56.1 | 69.7
C[C@]12CC[C@@H]3c4ccc(O)cc4CC[C@H]3[C@@H]1[C@@H](CCCC(=O)NCc1ccccc1)CC2(F)F [Compound 106] | 36.7 | 68
CCOc1cc2c(cc1O)CC[C@H]1[C@@H]3[C@@H](CCCC(=O)N4CCCCC4)CC(=O)[C@@]3(C)CC[C@H]21 [Compound 55] | 42.6 | 71.9
